Data published in ChEMBL document CHEMBL5696442, “Discovery of type II inhibitors of TGFβ-activated kinase 1 (TAK1) and mitogen-activated protein kinase kinase kinase kinase 2 (MAP4K2)” (J Med Chem, 2015).

Legend:
[1] = target: T1, Serine/threonine-protein kinase D3 (Homo sapiens) (UniProt O94806); assay: Inhibition of PKD3 Lys2 labeling site in human A-375 cells at 5 uM by KiNativ Profiling analysis relative to control; type: cell-based
T1 sequence (whole entry): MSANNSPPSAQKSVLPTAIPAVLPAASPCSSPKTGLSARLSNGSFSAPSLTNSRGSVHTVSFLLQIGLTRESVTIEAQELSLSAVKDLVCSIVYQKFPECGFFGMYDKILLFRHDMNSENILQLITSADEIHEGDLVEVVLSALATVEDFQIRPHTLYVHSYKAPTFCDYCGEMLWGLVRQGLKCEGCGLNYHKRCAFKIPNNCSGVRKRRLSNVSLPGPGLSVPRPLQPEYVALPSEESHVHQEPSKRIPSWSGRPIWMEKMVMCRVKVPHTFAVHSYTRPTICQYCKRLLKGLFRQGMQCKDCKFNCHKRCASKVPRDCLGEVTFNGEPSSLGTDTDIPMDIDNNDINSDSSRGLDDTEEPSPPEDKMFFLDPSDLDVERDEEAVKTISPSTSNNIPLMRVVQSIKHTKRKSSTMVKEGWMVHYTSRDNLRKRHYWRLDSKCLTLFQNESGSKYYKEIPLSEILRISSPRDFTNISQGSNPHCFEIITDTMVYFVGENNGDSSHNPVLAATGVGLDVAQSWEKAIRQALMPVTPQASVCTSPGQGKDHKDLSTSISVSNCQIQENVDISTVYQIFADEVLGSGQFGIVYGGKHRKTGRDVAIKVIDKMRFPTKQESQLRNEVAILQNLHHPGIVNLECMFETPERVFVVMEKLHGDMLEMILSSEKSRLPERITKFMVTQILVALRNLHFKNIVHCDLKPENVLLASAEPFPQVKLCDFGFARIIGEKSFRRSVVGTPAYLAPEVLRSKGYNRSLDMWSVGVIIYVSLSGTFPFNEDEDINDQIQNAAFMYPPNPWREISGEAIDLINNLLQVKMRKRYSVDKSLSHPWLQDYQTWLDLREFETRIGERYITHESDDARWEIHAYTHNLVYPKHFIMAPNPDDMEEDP

[2] = target: Microtubule-associated serine/threonine-protein kinase 3 (Homo sapiens) (UniProt O60307); assay: Inhibition of MAST3 Lys2 labeling site in human A-375 cells at 5 uM by KiNativ Profiling analysis relative to control; type: cell-based
[3] = target: T2, Mitogen-activated protein kinase kinase kinase 5 (Homo sapiens) (UniProt Q99683); assay: Inhibition of MAP3K5 Lys1 labeling site harbouring IAIKEIPERDSR in human A-375 cells at 5 uM by KiNativ Profiling analysis relative to control; type: cell-based
T2 sequence (whole entry): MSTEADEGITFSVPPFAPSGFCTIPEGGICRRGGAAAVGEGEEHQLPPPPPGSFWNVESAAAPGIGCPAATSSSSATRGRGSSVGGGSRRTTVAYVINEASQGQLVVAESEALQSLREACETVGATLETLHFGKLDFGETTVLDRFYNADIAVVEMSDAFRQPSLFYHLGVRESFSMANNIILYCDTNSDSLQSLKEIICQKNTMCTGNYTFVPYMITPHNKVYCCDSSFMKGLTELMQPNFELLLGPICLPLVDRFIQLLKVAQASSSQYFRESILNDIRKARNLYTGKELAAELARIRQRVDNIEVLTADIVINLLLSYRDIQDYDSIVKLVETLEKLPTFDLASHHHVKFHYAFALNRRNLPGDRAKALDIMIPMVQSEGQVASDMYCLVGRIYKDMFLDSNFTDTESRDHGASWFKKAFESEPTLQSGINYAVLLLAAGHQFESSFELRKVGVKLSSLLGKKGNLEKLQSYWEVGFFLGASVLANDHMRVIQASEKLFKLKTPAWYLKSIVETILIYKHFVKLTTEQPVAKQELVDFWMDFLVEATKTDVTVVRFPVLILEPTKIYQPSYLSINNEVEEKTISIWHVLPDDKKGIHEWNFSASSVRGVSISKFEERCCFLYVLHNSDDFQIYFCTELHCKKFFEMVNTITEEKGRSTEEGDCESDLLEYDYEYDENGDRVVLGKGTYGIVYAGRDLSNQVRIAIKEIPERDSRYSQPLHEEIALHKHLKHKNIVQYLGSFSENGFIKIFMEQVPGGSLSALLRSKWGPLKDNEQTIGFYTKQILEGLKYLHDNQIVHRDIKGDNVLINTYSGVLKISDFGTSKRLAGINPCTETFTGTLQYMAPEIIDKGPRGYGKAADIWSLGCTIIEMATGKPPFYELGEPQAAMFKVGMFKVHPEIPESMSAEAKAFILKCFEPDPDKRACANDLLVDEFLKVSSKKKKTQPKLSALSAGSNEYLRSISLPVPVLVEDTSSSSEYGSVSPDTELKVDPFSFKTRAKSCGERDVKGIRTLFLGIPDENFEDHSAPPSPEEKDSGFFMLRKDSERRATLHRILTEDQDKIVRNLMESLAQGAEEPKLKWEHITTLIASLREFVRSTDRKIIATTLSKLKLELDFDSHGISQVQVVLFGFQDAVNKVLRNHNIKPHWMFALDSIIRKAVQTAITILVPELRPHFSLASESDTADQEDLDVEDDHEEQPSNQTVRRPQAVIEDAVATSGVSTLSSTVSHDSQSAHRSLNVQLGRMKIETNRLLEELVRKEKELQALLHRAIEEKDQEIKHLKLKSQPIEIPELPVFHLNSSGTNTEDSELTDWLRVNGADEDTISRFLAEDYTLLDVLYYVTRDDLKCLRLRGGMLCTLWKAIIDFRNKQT

[4] = target: Mitogen-activated protein kinase 3 (Homo sapiens) (UniProt P27361); assay: Inhibition of Erk1 Lys2 labeling site harbouring YIHSANVLHRDLKPSNLLINTTCDLK in human Huh-7 cell lysate at 1 uM by KiNativ Profiling analysis relative to control; type: subcellular
[5] = target: T3, Phosphatidylinositol 5-phosphate 4-kinase type-2 gamma (Homo sapiens) (UniProt Q8TBX8); assay: Inhibition of PIP4K2C ATP labeling site harbouring VKELPTLKDMDFLNK in human Huh-7 cell lysate at 1 uM by KiNativ Profiling analysis relative to control; type: subcellular
T3 sequence (whole entry): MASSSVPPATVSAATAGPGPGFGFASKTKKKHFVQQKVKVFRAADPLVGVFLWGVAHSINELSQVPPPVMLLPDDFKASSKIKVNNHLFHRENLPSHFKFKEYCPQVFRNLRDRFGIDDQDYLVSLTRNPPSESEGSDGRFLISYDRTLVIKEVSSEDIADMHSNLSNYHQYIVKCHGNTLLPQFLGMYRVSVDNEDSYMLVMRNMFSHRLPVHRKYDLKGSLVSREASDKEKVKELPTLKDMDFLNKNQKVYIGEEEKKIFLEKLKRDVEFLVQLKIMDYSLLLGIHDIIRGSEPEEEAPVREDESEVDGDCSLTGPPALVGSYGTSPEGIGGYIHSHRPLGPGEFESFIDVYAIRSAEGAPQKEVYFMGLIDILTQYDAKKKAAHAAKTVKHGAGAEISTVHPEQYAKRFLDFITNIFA

Chain of Microtubule-associated serine/threonine-protein kinase 3 (Homo sapiens) (O60307 whole entry): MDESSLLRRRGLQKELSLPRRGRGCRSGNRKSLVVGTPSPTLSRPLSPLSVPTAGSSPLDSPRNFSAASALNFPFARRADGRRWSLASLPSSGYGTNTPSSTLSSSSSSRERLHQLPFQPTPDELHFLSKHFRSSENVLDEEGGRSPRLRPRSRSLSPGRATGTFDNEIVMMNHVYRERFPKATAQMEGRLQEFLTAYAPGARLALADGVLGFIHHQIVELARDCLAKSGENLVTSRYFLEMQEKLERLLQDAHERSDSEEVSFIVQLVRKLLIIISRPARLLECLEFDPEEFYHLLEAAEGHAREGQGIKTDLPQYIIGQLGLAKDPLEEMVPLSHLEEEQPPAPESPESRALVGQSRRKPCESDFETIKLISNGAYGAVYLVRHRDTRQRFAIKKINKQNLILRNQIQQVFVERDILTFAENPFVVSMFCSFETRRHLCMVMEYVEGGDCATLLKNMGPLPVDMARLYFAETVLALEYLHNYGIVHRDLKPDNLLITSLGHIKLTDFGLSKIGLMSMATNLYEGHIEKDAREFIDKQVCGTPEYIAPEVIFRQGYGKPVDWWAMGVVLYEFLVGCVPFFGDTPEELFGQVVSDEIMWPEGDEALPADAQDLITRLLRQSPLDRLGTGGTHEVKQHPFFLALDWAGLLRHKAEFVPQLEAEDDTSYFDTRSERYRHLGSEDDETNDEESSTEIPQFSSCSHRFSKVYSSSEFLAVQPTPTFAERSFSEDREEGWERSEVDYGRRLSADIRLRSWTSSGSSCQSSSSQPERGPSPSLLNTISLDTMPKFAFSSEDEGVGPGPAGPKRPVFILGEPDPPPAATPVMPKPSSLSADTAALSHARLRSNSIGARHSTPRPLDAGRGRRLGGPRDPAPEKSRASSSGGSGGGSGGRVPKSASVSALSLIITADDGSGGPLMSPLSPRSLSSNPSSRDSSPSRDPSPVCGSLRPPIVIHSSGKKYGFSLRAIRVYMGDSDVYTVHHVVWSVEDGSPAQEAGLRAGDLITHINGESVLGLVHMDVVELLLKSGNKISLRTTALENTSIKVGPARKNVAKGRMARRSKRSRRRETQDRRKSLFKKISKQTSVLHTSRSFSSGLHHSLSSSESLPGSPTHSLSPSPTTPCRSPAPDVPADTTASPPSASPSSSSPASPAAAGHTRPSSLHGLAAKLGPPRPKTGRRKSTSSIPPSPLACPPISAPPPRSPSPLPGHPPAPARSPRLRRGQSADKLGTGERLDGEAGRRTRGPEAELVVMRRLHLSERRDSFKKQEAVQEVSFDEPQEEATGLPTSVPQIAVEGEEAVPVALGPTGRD
Chain of Mitogen-activated protein kinase 3 (Homo sapiens) (P27361 whole entry): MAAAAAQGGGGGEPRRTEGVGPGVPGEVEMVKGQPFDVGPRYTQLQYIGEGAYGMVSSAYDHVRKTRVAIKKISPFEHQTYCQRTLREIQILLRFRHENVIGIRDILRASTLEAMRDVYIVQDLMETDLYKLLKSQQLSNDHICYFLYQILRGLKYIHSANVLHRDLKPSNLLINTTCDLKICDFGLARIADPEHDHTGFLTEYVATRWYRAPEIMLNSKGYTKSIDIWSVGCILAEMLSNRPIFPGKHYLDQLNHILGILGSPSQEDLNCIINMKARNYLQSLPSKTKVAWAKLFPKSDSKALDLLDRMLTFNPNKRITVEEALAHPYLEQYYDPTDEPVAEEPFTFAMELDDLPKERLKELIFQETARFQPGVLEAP

With `CCN1CCN(Cc2ccc(NC(=O)c3ccc(C)c(/C=C/c4cnc5[nH]ccc5c4OC)c3)cc2C(F)(F)F)CC1` the inhibition [1] was 7.3%.
With `CCN1CCN(Cc2ccc(NC(=O)c3ccc(C)c(Oc4ccnc5[nH]ccc45)c3)cc2C(F)(F)F)CC1` the inhibition [2] was 4.8% and the inhibition [3] was -3.2%.
With `CNc1cc(Oc2cc(C(=O)Nc3cc(N4CCN(C)CC4)cc(C(F)(F)F)c3)ccc2C)ncn1` the inhibition [4] was 20.7% and the inhibition [5] was 11.6%.
